Source: ChEMBL document CHEMBL1201862, “PubChem BioAssay data set” (2004)
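How tested: cells in 96-well plates exposed to compound for 48 hours at five concentrations. GI50 is the concentration that inhibits growth by half.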 The source made the active and inactive calls. Rule as the data show it: active = GI50 up to about 1.1 µM and inactive = higher.

Experiments:
Assay in all cases: NCI anticancer screen, dose series, 48 h
HOP-92 = test system: HOP-92
XF498 = test system: XF498
SF-539 = test system: SF-539
SK-MEL-2 = test system: SK-MEL-2
NCI-H226 = test system: NCI-H226
SF-268 = test system: SF-268
786-0 = test system: 786-0
OVCAR-8 = test system: OVCAR-8
HOP-62 = test system: HOP-62
OVCAR-4 = test system: OVCAR-4
K562 = test system: K562
SN12C = test system: SN12C
UACC-257 = test system: UACC-257
OVCAR-5 = test system: OVCAR-5
SK-MEL-5 = test system: SK-MEL-5
OVCAR-3 = test system: OVCAR-3
HL-60 = test system: HL-60
RXF 393 = test system: RXF 393
BT-549 = test system: BT-549
Hs-578T = test system: Hs-578T

Measured: GI50

NC(=O)c1csc(C2OC(COP(=O)(O)CP(=O)(O)OCC3OC(n4cnc5c(N)ncnc54)C(O)C3O)C(O)C2O)n1 (stereo not given)
inactive: HOP-92 > 100 µM | XF498 > 100 µM | SF-539 > 100 µM | SK-MEL-2 > 100 µM | NCI-H226 > 100 µM | SF-268 > 100 µM | 786-0 > 100 µM | OVCAR-8 > 100 µM | HOP-62 > 100 µM | OVCAR-4 > 100 µM | K562 55.3 µM | SN12C > 100 µM | UACC-257 > 100 µM | OVCAR-5 > 100 µM | SK-MEL-5 > 100 µM | OVCAR-3 > 100 µM | HL-60 > 100 µM

OCCN(CCO)c1cccc(N(CCO)CCO)n1
inactive: RXF 393 > 100 µM | HOP-92 > 100 µM | XF498 27.7 µM | SK-MEL-2 > 100 µM | SF-268 > 100 µM | 786-0 > 100 µM | OVCAR-8 > 100 µM | HOP-62 > 100 µM | OVCAR-4 > 100 µM | K562 > 100 µM | SN12C > 10 µM | UACC-257 > 100 µM | SK-MEL-5 > 100 µM | OVCAR-3 > 100 µM | HL-60 > 100 µM

CCCCN(CCCC)CC(C(=O)Nc1ccccc1)/C(C)=N\NC(=O)c1ccncc1 (stereo not given)
inactive: RXF 393 > 100 µM | HOP-92 > 100 µM | XF498 > 100 µM | SF-539 > 100 µM | NCI-H226 > 100 µM | SF-268 > 100 µM | 786-0 > 100 µM | OVCAR-8 > 100 µM | HOP-62 > 100 µM | OVCAR-4 > 100 µM | K562 > 100 µM | SN12C > 100 µM | UACC-257 > 100 µM | OVCAR-5 > 100 µM | SK-MEL-5 > 100 µM | OVCAR-3 64.7 µM | HL-60 98.2 µM

CCC(=O)N/S(=N/S(=O)(=O)c1ccccc1)C(Cl)(Cl)Cl (stereo not given)
inactive: RXF 393 > 100 µM | BT-549 > 100 µM | HOP-92 > 100 µM | SF-539 > 100 µM | SK-MEL-2 > 100 µM | NCI-H226 > 100 µM | SF-268 > 100 µM | 786-0 > 100 µM | OVCAR-8 > 100 µM | HOP-62 > 100 µM | OVCAR-4 > 100 µM | K562 > 100 µM | SN12C > 100 µM | UACC-257 > 100 µM | OVCAR-5 > 100 µM | SK-MEL-5 > 100 µM | Hs-578T > 100 µM | OVCAR-3 > 100 µM | HL-60 > 100 µM

Cc1cccc2c(O)cc(=O)oc12
inactive: RXF 393 > 100 µM | XF498 > 100 µM | SF-539 > 100 µM | NCI-H226 > 100 µM | SF-268 > 100 µM | 786-0 > 100 µM | OVCAR-8 > 100 µM | HOP-62 > 100 µM | OVCAR-4 > 100 µM | K562 > 100 µM | SN12C > 100 µM | UACC-257 > 100 µM | OVCAR-5 > 100 µM | OVCAR-3 > 100 µM | HL-60 > 100 µM

CCn1c(=O)nc2n(-c3ccccc3)c3ccccc3nc-2c1=O
inactive: HOP-92 18.3 µM | XF498 4.83 µM | SF-539 14.2 µM | SK-MEL-2 25 µM | NCI-H226 20 µM | SF-268 17.3 µM | 786-0 27.9 µM | OVCAR-8 19.5 µM | HOP-62 31.7 µM | OVCAR-4 12.6 µM | K562 17.9 µM | SN12C 20.6 µM | UACC-257 16.7 µM | OVCAR-5 29.3 µM | SK-MEL-5 10.4 µM | OVCAR-3 3.96 µM | HL-60 10.7 µM

CCOC(=O)c1cc2c(cn1)[nH]c1cccc(N)c12
inactive: RXF 393 > 100 µM | HOP-92 > 100 µM | XF498 > 100 µM | SF-539 > 100 µM | SF-268 > 100 µM | 786-0 > 100 µM | OVCAR-8 > 100 µM | HOP-62 > 100 µM | OVCAR-4 > 100 µM | K562 > 100 µM | SN12C > 100 µM | UACC-257 > 100 µM | OVCAR-5 > 100 µM | SK-MEL-5 > 100 µM | OVCAR-3 > 100 µM | HL-60 14.6 µM

Cn1ncc2cc3c(Nc4ccc(Cl)cc4)cccc3nc21
inactive: RXF 393 6.87 µM | HOP-92 6.67 µM | XF498 8.11 µM | SK-MEL-2 22.6 µM | SF-268 15.8 µM | 786-0 21.6 µM | OVCAR-8 19 µM | HOP-62 15 µM | OVCAR-4 11.8 µM | K562 20 µM | SN12C 18.1 µM | UACC-257 18.9 µM | OVCAR-5 > 10 µM | SK-MEL-5 13.1 µM | OVCAR-3 12.7 µM | HL-60 11 µM

O=c1[nH]c2cccccc-2c1-c1nc2ccccc2[nH]1
inactive: RXF 393 20.9 µM | HOP-92 25.8 µM | XF498 18.5 µM | SF-539 22.4 µM | SK-MEL-2 24.3 µM | NCI-H226 11.1 µM | SF-268 14.9 µM | 786-0 18.2 µM | OVCAR-8 26.5 µM | HOP-62 39.8 µM | OVCAR-4 20.6 µM | K562 34.5 µM | SN12C 31.6 µM | UACC-257 > 100 µM | OVCAR-5 > 100 µM | SK-MEL-5 18.7 µM | OVCAR-3 > 10 µM | HL-60 36.6 µM

Cc1ccc(NC(=O)CCC(=O)C2CC(=O)CC/C2=N\NC(=O)c2cc3ccccc3cc2O)cc1C (stereo not given)
inactive: HOP-92 14.3 µM | XF498 31.1 µM | SF-539 30.1 µM | SK-MEL-2 26.4 µM | NCI-H226 23 µM | SF-268 17.3 µM | 786-0 25.8 µM | OVCAR-8 24.7 µM | HOP-62 43.4 µM | OVCAR-4 16.4 µM | K562 8.18 µM | SN12C 48.9 µM | UACC-257 20.7 µM | OVCAR-5 22 µM | SK-MEL-5 14.5 µM | OVCAR-3 14.8 µM | HL-60 4.35 µM

COc1ccc(Cc2nccc3cc(OC)c(OC)cc23)cc1
inactive: XF498 23.8 µM | SF-539 > 100 µM | SK-MEL-2 > 100 µM | SF-268 65.5 µM | 786-0 > 100 µM | OVCAR-8 91.8 µM | HOP-62 > 100 µM | OVCAR-4 36.5 µM | K562 48 µM | SN12C 36.9 µM | UACC-257 16.4 µM | OVCAR-5 40.4 µM | SK-MEL-5 35.7 µM | OVCAR-3 50.4 µM

NC(=O)Cc1nc2c(O)ncnc2n1C1OC(CO)C(O)C1O (stereo not given)
inactive: RXF 393 > 100 µM | BT-549 > 100 µM | HOP-92 > 100 µM | SF-539 > 100 µM | SK-MEL-2 > 100 µM | NCI-H226 > 100 µM | SF-268 > 100 µM | 786-0 > 100 µM | OVCAR-8 > 100 µM | HOP-62 > 100 µM | OVCAR-4 > 100 µM | K562 > 100 µM | SN12C > 100 µM | UACC-257 > 100 µM | OVCAR-5 > 100 µM | SK-MEL-5 > 100 µM | Hs-578T > 100 µM | OVCAR-3 > 100 µM | HL-60 > 100 µM
